From patent US9790235B2, “MK2 inhibitors and uses thereof” (Celgene CAR LLC, priority 2014, dated 2017)
Read-outs that look alike come from different tables or passages of the source.

Assays:
MK2 [1] = target: T1, MK2 (Homo sapiens (Human), UniProt P49137); experiment: MK2 cellular assay, total and phospho-Hsp27 (Serine 78) by MSD ELISA (Thp1); format: cell-based
Protocol: MK2 Cellular Assay—Detection of Total and Phospho-Hsp27 (Serine 78) by MSD ELISA (Thp1)
Compounds of the invention were assayed in Thp-1 human acute monocytic leukemia cells to measure inhibition of MK2 activity. Thp-1 cells were grown in culture medium containing RPMI/10% FBS (fetal bovine serum)/0.05 mM 2-mercaptoethanol. 72 hours prior to the assay, 8×10^4 cells per well were plated in a 96 well flat bottom plate along with 10 ng/mL phorbol 12-myristate 13-acetate (PMA). Cells were cultured in an incubator at 37° C. until needed for the assay. Cell plate media was replaced with culture media just prior to assay while compound dilutions were being made.
Stock solutions of test compound, 1 mM in DMSO, were prepared. 0.9 μl of test compound was added to 300 μl cell media for a starting concentration of 3000 nM. […] Cell plate media was discarded, followed by addition of 100 μl of the compound containing media. The resulting preparation was incubated at 37° C. for 1 hour.
Test compound-containing cell assay media was removed and the cells were washed once with cell assay media. Cell assay media containing 50 ng/mL LPS (lipopolysaccharide) was added to the each well and incubated for 45 minutes. Following LPS incubation, the cells were washed once with PBS (phosphate-buffered saline) and lysed with 60 μl Cell Extraction Buffer (Invitrogen #FNN0011) plus protease and phosphatase inhibitors. The plate was then stored at −80° C. until further analysis.
The MULTI-SPOT Phospho(Ser78)/Total HSP27 ELISA Assay kit was purchased from Meso Scale […] (MSD; catalog #K15128D). […] The pre-coated MSD plate was blocked with 150 μL/well of 3% BSA in MSD wash buffer. The preparation was placed on a shaker at room temperature for an hour. While the ELISA plate was blocked, the cell assay plate stored at −80° C. was placed on a shaker at 4° C. for 1 hour to thaw.
The blocked MSD plate was washed on a plate washer, tapping out the last bit of wash solution, followed by addition of 30 μl of the lysate from the cell assay plate. The preparation was covered and incubated for 1 hour at room temperature. The lysate was removed, the plate was washed 3 times on a plate washer and the last bit of wash buffer was tapped out and replaced with 25 μl/well detection antibody (anti-total HSP27 conjugated with an electrochemiluminescent compound, MSD SULFO-TAG label, supplied in kit) made in 1% BSA/MSD wash buffer. The plate was incubated for 1 hour at room temperature on a shaker, followed by 3 washes. The last bit of wash buffer was tapped out. 150 μl/well 1×MSD read buffer was added (4× read buffer supplied with kit) and the plate was analyzed on the MSD SECTOR® Imager for analysis. The SECTOR® Imager measures intensity of emitted light to provide a quantitative measure of phosphorylated HSP27 (Ser78) and total HSP27 present in the sample. The relative percent phosphoprotein in a sample is calculated by dividing the Phospho-HSP27 signal intensity over the total HSP27 signal intensity measured in each well.

MK2 [2] = target: T1, MK2; conditions: percentage of modified protein after 60 minutes at room temperature, 10-fold excess of compound; MALDI (I-1 to I-50), magnetic bead MALDI (I-51 to I-129)
Protocol: Aliquots of the resulting mixture (6 μL each) were diluted with 0.2% trifluoroacetic acid (TFA, 10 μL) prior to micro C4 ZipTipping directly onto the MALDI target using sinapinic acid as the desorption matrix (10 mg/ml in 0.1% TFA:acetonitrile 50:50, v/v). The centroid mass of the target protein in the control sample was compared with the centroid mass of the target protein incubated with compound. A shift in the centroid mass of the treated protein compared to the untreated protein was divided by the molecular weight of the compound. This number corresponds to the percentage of modified protein (a measure of the proportion of total target protein covalently bound to the test compound) after one hour incubation.
3 μL of magnetic Ni-NTA beads were added to the 6 μL aliquots of sample, washed, eluted with 0.2% trifluoroacetic acid (TFA, 2 μL), and spotted directly onto the MALDI target using sinapinic acid as the desorption matrix (10 mg/ml in 0.1% TFA:acetonitrile 50:50, v/v). The centroid mass of the target protein in the control sample was compared with the centroid mass of the target protein incubated with compound. A shift in the centroid mass of the treated protein compared to the untreated protein was divided by the molecular weight of the compound. This number corresponds to the percentage of modified protein (a measure of the proportion of total target protein covalently bound to the test compound) after one hour incubation.

[3] = target: p38α activated, mitogen-activated protein kinase-activated protein kinase 2 (MAPKAP-K2 or MK2) enzyme (Homo sapiens (Human), UniProt P49137); experiment: MK2 Omnia continuous-read kinase assay for compound potency; format: biochemical; conditions: [MK-2]=0.4 nM, [ATP]=10 μM, [ST3-Sox]=10 μM; read-out: MK2 IC50
Summary of the method: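 Continuous fluorescence read (λex360/λem485) with 0.4 nM p38α-activated MK2, 10 μM ATP (apparent KM) and 10 μM S/T3-Sox peptide, monitored over 120 min at room temperature. Background-corrected initial slopes gave % inhibition and IC50 with Hill slope; exponential fits gave kobs, yielding apparent kinact/KI.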

[4] = Thp-1 cells, 1 hour compound, 50 ng/mL LPS 45 minutes, p-HSP27 (Ser78)/total HSP27, read-out: pHSP27 signaling EC50
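Throughout, for Mass Modification: covalent binding read from centroid mass shift of compound-treated versus untreated intact MK2, shift divided by compound molecular weight, giving fraction of total protein bound.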

T1 sequence (P49137 whole entry): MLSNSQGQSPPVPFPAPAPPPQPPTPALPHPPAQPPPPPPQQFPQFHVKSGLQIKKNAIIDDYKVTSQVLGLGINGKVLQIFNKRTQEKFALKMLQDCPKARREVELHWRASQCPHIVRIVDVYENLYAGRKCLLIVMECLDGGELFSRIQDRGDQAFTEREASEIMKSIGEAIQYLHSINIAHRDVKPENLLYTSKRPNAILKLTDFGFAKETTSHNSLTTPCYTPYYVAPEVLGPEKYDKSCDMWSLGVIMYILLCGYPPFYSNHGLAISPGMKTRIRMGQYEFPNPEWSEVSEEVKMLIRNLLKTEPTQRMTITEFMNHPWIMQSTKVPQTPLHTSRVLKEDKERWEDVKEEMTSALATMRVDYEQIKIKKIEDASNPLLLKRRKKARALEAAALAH
Sequence of p38α activated, mitogen-activated protein kinase-activated protein kinase 2 (MAPKAP-K2 or MK2) enzyme (P49137 whole entry): as above

With `COCCOc1nc(F)cc(Nc2ccc3c(ccc4sc5c(c43)NC[C@@H](C)NC5=O)n2)n1` [I-44, (R)-3-((6-fluoro-2-(2-methoxyethoxy)pyrimidin-4-yl)amino)-10-methyl-9,10,11,12-tetrahydro-8H-[1,4]diazepino[5′,6′:4,5]thieno[3,2-f]quinolin-8-one] the EC50 (MK2 [1]) was 101 to 500 nM, the “Mass Modification” value (MK2 [2]) was “G (mass modification ≦30%)” and the IC50 [3] was under 100 nM.
In the case of `COCCOc1cc(F)nc(Nc2ccc3c(ccc4sc5c(c43)NC[C@@H](C)NC5=O)n2)n1` [I-45, (R)-3-((4-fluoro-6-(2-methoxyethoxy)pyrimidin-2-yl)amino)-10-methyl-9,10,11,12-tetrahydro-8H-[1,4]diazepino[5′,6′:4,5]thieno[3,2-f]quinolin-8-one], the EC50 (MK2 [1]) is reported as over 1000 nM, the “Mass Modification” value (MK2 [2]) is reported as “G (mass modification ≦30%)” and the IC50 [3] is reported as under 100 nM.
`C[C@@H]1CNc2c(sc3ccc4nc(Nc5cc(F)nc(OC6CCCN(C)C6)n5)ccc4c23)C(=O)N1` (stereo partly drawn) [I-47, (10R)-3-((6-fluoro-2-((1-methylpiperidin-3-yl)oxy)pyrimidin-4-yl)amino)-10-methyl-9,10,11,12-tetrahydro-8H-[1,4]diazepino[5′,6′:4,5]thieno[3,2-f]quinolin-8-one] was tested, and the EC50 (MK2 [1]) was 101 to 500 nM, the “Mass Modification” value (MK2 [2]) was “F (mass modification of 31-69%)” and the IC50 [3] was under 100 nM.
For `C[C@@H]1CNc2c(sc3ccc4nc(Oc5ccnc(Cl)n5)ccc4c23)C(=O)N1` [I-53, (R)-3-((2-chloropyrimidin-4-yl)oxy)-10-methyl-9,10,11,12-tetrahydro-8H-[1,4]diazepino[5′,6′:4,5]thieno[3,2-f]quinolin-8-one], the EC50 (MK2 [1]; [4]) was 101 to 500 nM, the “Mass Modification” value (MK2 [2]) was “F (mass modification of 31-69%)” and the IC50 [3] was under 100 nM.
In the case of `C[C@@H]1CNc2c(sc3ccc4nc(Sc5cc(F)ncn5)ccc4c23)C(=O)N1` [I-54, (R)-3-((6-fluoropyrimidin-4-yl)thio)-10-methyl-9,10,11,12-tetrahydro-8H-[1,4]diazepino[5′,6′:4,5]thieno[3,2-f]quinolin-8-one], the EC50 (MK2 [1]; [4]) is reported as over 1000 nM, the “Mass Modification” value (MK2 [2]) is reported as “E (mass modification of ≧70%)” and the IC50 [3] is reported as under 100 nM.
`C[C@@H]1CNc2c(sc3ccc4nc(Oc5cncc(Cl)n5)ccc4c23)C(=O)N1` [I-55, (R)-3-((6-chloropyrazin-2-yl)oxy)-10-methyl-9,10,11,12-tetrahydro-8H-[1,4]diazepino[5′,6′:4,5]thieno[3,2-f]quinolin-8-one] was tested, and the EC50 (MK2 [1]; [4]) was over 1000 nM, the “Mass Modification” value (MK2 [2]) was “G (mass modification ≦30%)” and the IC50 [3] was 101 to 500 nM.
`C[C@@H]1CNc2c(sc3ccc4nc(Oc5cc(Cl)ncn5)ccc4c23)C(=O)N1` [I-56, (R)-3-((6-chloropyrimidin-4-yl)oxy)-10-methyl-9,0,11,12-tetrahydro-8H-[1,4]diazepino[5′,6′:4,5]thieno[3,2-f]quinolin-8-one] was tested, and the EC50 (MK2 [1]; [4]) was under 100 nM, the “Mass Modification” value (MK2 [2]) was “E (mass modification of ≧70%)” and the IC50 [3] was under 100 nM.
`COCc1nc(Cl)cc(Oc2ccc3c(ccc4sc5c(c43)NC[C@@H](C)NC5=O)n2)n1` [I-57, (R)-3-((6-chloro-2-(methoxymethyl)pyrimidin-4-yl)oxy)-10-methyl-9,10,11,12-tetrahydro-8H-[1,4]diazepino[5′,6′:4,5]thieno[3,2-f]quinolin-8-one] was tested, and the EC50 (MK2 [1]; [4]) was under 100 nM, the “Mass Modification” value (MK2 [2]) was “E (mass modification of ≧70%)” and the IC50 [3] was under 100 nM.
With `Cc1nc(Cl)cc(Oc2ccc3c(ccc4sc5c(c43)NC[C@@H](C)NC5=O)n2)n1` [I-58, (R)-3-((6-chloro-2-methylpyrimidin-4-yl)oxy)-10-methyl-9,10,11,12-tetrahydro-8H-[1,4]diazepino[5′,6′:4,5]thieno[3,2-f]quinolin-8-one] the EC50 (MK2 [1]; [4]) was under 100 nM, the “Mass Modification” value (MK2 [2]) was “E (mass modification of ≧70%)” and the IC50 [3] was under 100 nM.
In the case of `C[C@@H]1CNc2c(sc3ccc4nc(Nc5cc(Cl)nc(OC6CCCN(C)C6)n5)ccc4c23)C(=O)N1` (stereo partly drawn) [I-59, (10R)-3-((6-chloro-2-((1-methylpiperidin-3-yl)oxy)pyrimidin-4-yl)amino)-10-methyl-9,10,11,12-tetrahydro-8H-[1,4]diazepino[5′,6′:4,5]thieno[3,2-f]quinolin-8-one], the EC50 (MK2 [1]; [4]) is reported as 501 to 999 nM, the “Mass Modification” value (MK2 [2]) is reported as “E (mass modification of ≧70%)” and the IC50 [3] is reported as under 100 nM.
With `C[C@@H]1CNc2c(sc3ccc4nc(Nc5cc(Cl)nc(O[C@@H]6CCN(C)C6)n5)ccc4c23)C(=O)N1` [I-60, (R)-3-((6-chloro-2-(((R)-1-methylpyrrolidin-3-yl)oxy)pyrimidin-4-yl)amino)-10-methyl-9,10,11,12-tetrahydro-H-[1,4]diazepino[5′,6′:4,5]thieno[3,2-f]quinolin-8-one] the EC50 (MK2 [1]; [4]) was 101 to 500 nM, the “Mass Modification” value (MK2 [2]) was “F (mass modification of 31-69%)” and the IC50 [3] was under 100 nM.
For `C[C@@H]1CNc2c(sc3ccc4nc(Nc5nc(Cl)cc(OCCN6CCN(C)CC6)n5)ccc4c23)C(=O)N1` [I-61, (R)-3-((4-chloro-6-(2-(4-methylpiperazin-1-yl)ethoxy)pyrimidin-2-yl)amino)-10-methyl-9,10,11,12-tetrahydro-8H-[1,4]diazepino[5′,6′:4,5]thieno[3,2-f]quinolin-8-one], the EC50 (MK2 [1]; [4]) was over 1000 nM, the “Mass Modification” value (MK2 [2]) was “G (mass modification ≦30%)” and the IC50 [3] was under 100 nM.
With `C[C@@H]1CNc2c(sc3ccc4nc(Oc5nc(Cl)nc(N6CCCC6)n5)ccc4c23)C(=O)N1` [I-62, (R)-3-((4-chloro-6-(pyrrolidin-1-yl)-1,3,5-triazin-2-yl)oxy)-10-methyl-9,10,11,12-tetrahydro-8H-[1,4]diazepino[5′,6′:4,5]thieno[3,2-f]quinolin-8-one] the EC50 (MK2 [1]; [4]) was 101 to 500 nM, the “Mass Modification” value (MK2 [2]) was “E (mass modification of ≧70%)” and the IC50 [3] was under 100 nM.
For `C[C@@H]1CNc2c(sc3ccc4nc(Oc5nc(Cl)nc(N6CCOCC6)n5)ccc4c23)C(=O)N1` [I-63, (R)-3-((4-chloro-6-morpholino-1,3,5-triazin-2-yl)oxy)-10-methyl-9,10,11,12-tetrahydro-8H-[1,4]diazepino[5′,6′:4,5]thieno[3,2-f]quinolin-8-one], the EC50 (MK2 [1]; [4]) was under 100 nM, the “Mass Modification” value (MK2 [2]) was “E (mass modification of ≧70%)” and the IC50 [3] was under 100 nM.
`C[C@@H]1CNc2c(sc3ccc4nc(Oc5nc(Cl)nc(N6CCCCC6)n5)ccc4c23)C(=O)N1` [I-64, (R)-3-((4-chloro-6-(piperidin-1-yl)-1,3,5-triazin-2-yl)oxy)-10-methyl-9,10,11,12-tetrahydro-8H-[1,4]diazepino[5′,6′:4,5]thieno[3,2-f]quinolin-8-one] was tested, and the EC50 (MK2 [1]; [4]) was over 1000 nM, the “Mass Modification” value (MK2 [2]) was “E (mass modification of ≧70%)” and the IC50 [3] was under 100 nM.
In the case of `Cc1nc(F)cc(Oc2ccc3c(ccc4sc5c(c43)NC[C@@H](C)NC5=O)n2)n1` [I-65, (R)-3-((6-fluoro-2-methylpyrimidin-4-yl)oxy)-10-methyl-9,10,11,12-tetrahydro-8H-[1,4]diazepino[5′,6′:4,5]thieno[3,2-f]quinolin-8-one], the EC50 (MK2 [1]; [4]) is reported as 101 to 500 nM, the “Mass Modification” value (MK2 [2]) is reported as “E (mass modification of ≧70%)” and the IC50 [3] is reported as under 100 nM.
`C[C@@H]1CNc2c(sc3ccc4nc(Nc5cc(Cl)nc(OCCN6CCN(C)CC6)n5)ccc4c23)C(=O)N1` [I-66, (R)-3-((6-chloro-2-(2-(4-methylpiperazin-1-yl)ethoxy)pyrimidin-4-yl)amino)-10-methyl-9,10,11,12-tetrahydro-8H-[1,4]diazepino[5′,6′:4,5]thieno[3,2-f]quinolin-8-one] was tested, and the EC50 (MK2 [1]; [4]) was 101 to 500 nM, the “Mass Modification” value (MK2 [2]) was “F (mass modification of 31-69%)” and the IC50 [3] was under 100 nM.
